This passage reports IC50 and Solubility results from patent US5686485A, “Physiologically active EI-1941 compounds” (Kyowa Hakko Kogyo Co., Ltd., priority 1995, dated 1997).

In data set [1] the test system is production of IL-1β by human monocyte-derived THP-1 cells. In words: Inhibitory activity against the production of IL-1β by human monocyte-derived THP-1 cells (LPS-stimulated, ELISA). Particulars: THP-1 cells differentiated with PMA 30 nM, 65 h, LPS 25 μg/ml, 4 hours, serum-free RPMI1640, test compound 0.05-50 μg/ml, read-out: IC50 (50% inhibitory concentration), IL-1 production inhibition. Format: cell-based. As to the method:
The inhibitory activity of EI-1941 compounds against the production of IL-1β by human monocyte-derived THP-1 cells (ATCC No. TIB 202) was examined in the following manner. The amount of IL-1β was determined by the ELISA method.
THP-1 cells were suspended in RPMI1640 medium (Nissui Pharmaceutical Co., Ltd.) containing 10% inactivated fetal calf serum at a concentration of 1×10^5 cells/ml. The cell suspension was put into wells of a 24-well plate in an amount of 1 ml/well. Phorbol 12-myristate 13-acetate (PMA, final concentration: 30 nM) was added to the wells, followed by incubation in a 5% CO2 -incubator at 37° C. for 65 hours to differentiate the cells into macrophage.
Then, the plate was gently washed with serum-free RPMI1640 medium to remove the cells which were not adhered to the wells, and the residue was cultured for 4 hours in serum-free RPMI1640 medium (1 ml/well) containing lipopolysaccharide (LPS, final concentration: 25 μg/ml) and a test compound (final concentration: 0.05-50 μg/ml).
After the completion of culturing, the amount of IL-1β released into the culture supernatant was determined by using an IL-1β determination kit (Amersham Corp.).
The IL-1 production inhibition rate was calculated according to the following equation to obtain IC50 (50% inhibitory concentration).
IL-1 production inhibition rate (%)=(A-B)/(A-C)×100
A: Amount of IL-1 produced when only LPS is added […]

Another data set is described as follows: Solubility. Conditions: in methanol and acetonitrile. Format: physicochemical.

pIC50: −log10 of the molar value.

`CCCC1CC2=C(C(O)O1)C(O)C1OC1C2=O` (centres unmarked) [EI-1941-1]: in data set [1], the pIC50 is 6.00. Besides, in the data set “Solubility”, the Solubility entry is “Readily soluble in methanol and acetonitrile”.
Consider `CCCC1CC2=C(C(=O)O1)C(O)C1OC1C2=O` (centres unmarked) [EI-1941-2], for which the pIC50 in data set [1] was 5.66. The Solubility entry in the data set “Solubility” is “Readily soluble in methanol and acetonitrile”.
In the case of `CCCC1CC2=C(C(=O)O1)C(O)C(O)CC2=O` (centres unmarked) [EI-1941-3], the Solubility entry in the data set “Solubility” was “Readily soluble in methanol and acetonitrile”.
